In brackets after ≈: the same amount, converted by molar mass. Like-named read-outs stand apart in the source and are kept apart here.
Columns and labels:
[1] = test system: Staphylococcus aureus ATCC 29213; assay: Agar well diffusion, S. aureus; assay type: cell-based; settings: ATCC29213, 100 μL of 10 mg/mL in DMSO, read-out: diameter of inhibition zone, SA
Summary of the method: (§1)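 Wells (10 mm) in nutrient agar (bacteria, 1 × 10^8 CFU/mL) or Sabouraud dextrose agar (yeast, 1 × 10^6 CFU/mL) loaded with 100 μL of 10 mg/mL compound in DMSO. Plates incubated 24 h at 37 °C. Inhibition zone diameter (mm), mean of triplicates.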

[2] = test system: Bacillus subtilis ATCC 6633; assay: Agar well diffusion, B. subtilis; assay type: cell-based; settings: ATCC6633, 100 μL of 10 mg/mL in DMSO, read-out: diameter of inhibition zone, BS
Summary of the method: as §1

[3] = test system: Bacillus megaterium ATCC 9885; assay: Agar well diffusion, B. megaterium; assay type: cell-based; settings: Priestia megaterium, ATCC9885, 100 μL of 10 mg/mL in DMSO, read-out: diameter of inhibition zone, BM
Summary of the method: as §1

[4] = test system: Escherichia coli ATCC 2592; assay: Agar well diffusion, E. coli; assay type: cell-based; settings: ATCC2592, 100 μL of 10 mg/mL in DMSO, read-out: diameter of inhibition zone, EC
Summary of the method: as §1

[5] = test system: Pseudomonas aeruginosa ATCC 27,953; assay: Agar well diffusion, P. aeruginosa; assay type: cell-based; settings: ATCC27, 100 μL of 10 mg/mL in DMSO, read-out: diameter of inhibition zone, PA
Summary of the method: as §1

[6] = test system: Saccharomyces cerevisiae local isolate; assay: Agar well diffusion, S. cerevisiae; assay type: cell-based; settings: read-out: diameter of inhibition zone, SC
Summary of the method: as §1

[7] = test system: Staphylococcus aureus ATCC 29213; assay: MIC, two-fold serial dilution, S. aureus; assay type: cell-based; settings: ATCC29213, read-out: Minimum inhibitory concentration, SA
Summary of the method: (§2)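 Broth tube dilution, two-fold, final 1000–125 μg/mL; inoculum 1 × 10^8 CFU/mL bacteria, 1 × 10^6 CFU/mL yeast (0.1 mL/5 mL); 37 °C, 24 h; MIC read as lowest conc. with no visible growth. Only agar-diffusion actives (IZ > 16 mm) tested.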

[8] = test system: Bacillus subtilis ATCC 6633; assay: MIC, two-fold serial dilution, B. subtilis; assay type: cell-based; settings: ATCC6633, read-out: Minimum inhibitory concentration, BS
Summary of the method: as §2

[9] = test system: Bacillus megaterium ATCC 9885; assay: MIC, two-fold serial dilution, B. megaterium; assay type: cell-based; settings: Priestia megaterium, ATCC9885, read-out: Minimum inhibitory concentration, BM
Summary of the method: as §2

[10] = test system: Escherichia coli ATCC 2592; assay: MIC, two-fold serial dilution, E. coli; assay type: cell-based; settings: ATCC2592, read-out: Minimum inhibitory concentration, EC
Summary of the method: as §2

[11] = test system: Pseudomonas aeruginosa ATCC 27,953; assay: MIC, two-fold serial dilution, P. aeruginosa; assay type: cell-based; settings: ATCC27, read-out: Minimum inhibitory concentration, PA
Summary of the method: as §2

[12] = test system: Candida albicans NRRL Y-477; assay: MIC, two-fold serial dilution, C. albicans; assay type: cell-based; settings: NRRLY477, read-out: Minimum inhibitory concentration, CA
Summary of the method: as §2

[13] = test system: trypsin; assay: Proteinase-inhibitory activity; assay type: biochemical; settings: 250 µg/mL; mean ± SD (n = 3)
Summary of the method: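 Trypsin (0.06 mg per 2 mL, 20 mM Tris-HCl pH 7.4) was preincubated 5 min with test sample at 250 µg/mL, then 0.8% casein was added for 20 min. Perchloric acid stopped the reaction and supernatant absorbance was read at 280 nm. % inhibition is relative to the no-sample control, in triplicate.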

[14] = molecular target: T1, COX-1 (Homo sapiens, UniProt P23219); assay: COX-1 inhibition, Cayman assay kit; assay type: biochemical; settings: mean of two determinations
T1 construct: purchased Cayman Chemical 701070

[15] = well diffusion, 100 μL of 10 mg/mL in DMSO, S. cerevisiae

T1 sequence (P23219 24-599): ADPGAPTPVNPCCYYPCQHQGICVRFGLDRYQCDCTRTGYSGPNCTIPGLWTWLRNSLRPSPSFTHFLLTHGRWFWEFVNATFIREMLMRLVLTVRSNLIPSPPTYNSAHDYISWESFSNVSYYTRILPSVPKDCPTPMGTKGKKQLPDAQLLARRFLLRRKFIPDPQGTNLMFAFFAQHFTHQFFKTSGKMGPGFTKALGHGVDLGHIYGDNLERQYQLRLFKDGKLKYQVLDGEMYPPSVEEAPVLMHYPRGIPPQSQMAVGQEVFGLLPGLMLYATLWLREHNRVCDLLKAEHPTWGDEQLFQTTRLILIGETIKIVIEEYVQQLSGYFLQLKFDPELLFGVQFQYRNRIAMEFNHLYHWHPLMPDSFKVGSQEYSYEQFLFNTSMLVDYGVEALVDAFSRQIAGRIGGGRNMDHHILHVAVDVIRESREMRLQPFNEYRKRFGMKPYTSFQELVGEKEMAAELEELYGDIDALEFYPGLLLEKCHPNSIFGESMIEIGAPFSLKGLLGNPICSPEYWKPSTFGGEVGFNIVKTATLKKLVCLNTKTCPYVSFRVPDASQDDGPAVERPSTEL

Structure (SMILES)	zone of inhibition at 10000 µg/mL [1]	zone of inhibition at 10000 µg/mL [2]	zone of inhibition at 10000 µg/mL [3]	zone of inhibition at 10000 µg/mL [4]	zone of inhibition at 10000 µg/mL [5]	zone of inhibition at 10000 µg/mL [6, 15]	MIC [7]	MIC [8]	MIC [9]	MIC [10]	MIC [11]	MIC [12]	% Inhibition (proteinase) [13]	IC50 [14]	melting point	zone of inhibition at 10000 µg/mL [6]
O=c1oc2ccc(Cl)cc2c(O)c1S(=O)(=O)Nc1ccccc1 [8a, 6-Chloro-4-hydroxy-2-oxo-N-phenyl-2H-chromene-3-sulfonamide]	26 mm	28 mm	29 mm	25 mm	26 mm	28 mm	500 µg/mL (≈ 1420 µM)	250 µg/mL (≈ 711 µM)	250 µg/mL (≈ 711 µM)	500 µg/mL (≈ 1420 µM)	500 µg/mL (≈ 1420 µM)	250 µg/mL (≈ 711 µM)	44.7 ± 8.22%	25 µM	337 to 339 °C	
Cc1ccc2oc(=O)c3c(c2c1)OC(N)=C(C#N)C3c1ccco1 (racemic) [2b, (±)-2-Amino-4-(furan-2-yl)-9-methyl-5-oxo-4H,5H-pyrano[3,2-c]chromene-3-carbonitrile]	25 mm	23 mm	25 mm	18 mm	21 mm		500 µg/mL (≈ 1560 µM)	500 µg/mL (≈ 1560 µM)	500 µg/mL (≈ 1560 µM)	1000 µg/mL (≈ 3120 µM)	1000 µg/mL (≈ 3120 µM)	500 µg/mL (≈ 1560 µM)	74.68 ± 3.01%	201 µM	251 to 253 °C	27 mm
O=c1oc2ccc(Cl)cc2c(O)c1S(=O)(=O)Nc1ccc(O)cc1 [8c, 6-Chloro-4-hydroxy-N-(4-hydroxyphenyl)-2-oxo-2H-chromene-3-sulfonamide]	30 mm	29 mm	28 mm	27 mm	29 mm	31 to 32 mm	125 µg/mL (≈ 340 µM)	125 µg/mL (≈ 340 µM)	250 µg/mL (≈ 680 µM)	250 µg/mL (≈ 680 µM)	250 µg/mL (≈ 680 µM)	125 µg/mL (≈ 340 µM)	41.69 ± 2.83%	15.4 µM	250 to 251 °C	

From paper PMC7397269, “Synthesis and Evaluation of New Coumarin Derivatives as Antioxidant, Antimicrobial, and Anti-Inflammatory Agents” (Molecules, 2020)
